{"source": "paper PMC10458858", "about": "“Phytochemical Investigation of Lepionurus sylvestris Blume and Their Anti-Diabetes Effects via Anti-Alpha Glucosidase and Insulin Secretagogue Activities Plus Molecular Docking” (Pharmaceuticals, 2023)", "key": {"alpha glucosidase enzyme": {"molecular_target": "alpha glucosidase enzyme (Saccharomyces cerevisiae, UniProt P53341)", "sequence (P53341 whole entry)": "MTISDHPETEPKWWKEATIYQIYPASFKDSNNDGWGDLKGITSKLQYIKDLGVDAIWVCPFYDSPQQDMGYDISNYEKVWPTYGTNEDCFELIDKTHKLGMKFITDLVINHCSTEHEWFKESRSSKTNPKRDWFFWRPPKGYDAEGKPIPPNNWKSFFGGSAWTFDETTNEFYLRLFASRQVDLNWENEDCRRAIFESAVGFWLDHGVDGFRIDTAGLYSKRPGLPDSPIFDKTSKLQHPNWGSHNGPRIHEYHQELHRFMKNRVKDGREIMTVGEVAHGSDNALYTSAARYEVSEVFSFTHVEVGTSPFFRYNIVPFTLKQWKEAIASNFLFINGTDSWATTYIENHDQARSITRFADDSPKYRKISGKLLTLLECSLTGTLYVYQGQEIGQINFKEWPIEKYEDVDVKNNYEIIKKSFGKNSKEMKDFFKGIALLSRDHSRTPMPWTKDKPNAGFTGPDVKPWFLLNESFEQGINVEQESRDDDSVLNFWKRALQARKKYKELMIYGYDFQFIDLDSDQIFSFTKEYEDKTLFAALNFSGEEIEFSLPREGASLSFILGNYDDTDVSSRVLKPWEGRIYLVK", "test": "Anti-alpha glucosidase activity and mechanism of action (Michaelis–Menten, Lineweaver–Burk plots)", "assay_type": "biochemical", "details": "for inhibition at 400 µg/mL: read-out: Alpha Glucosidase Inhibition at 400 μg/mL", "procedure": "The anti-alpha glucosidase activity was determined by following Phoopha et al.’s method. […] The reaction was prepared using a phosphate buffer (pH 7.0), sample (was dissolved in DMSO), […] as substrate, and alpha glucosidase enzyme solution. The test was evaluated by measuring the velocity of the reaction per minute."}, "in vitro [1]": {"test": "in vitro", "assay_type": "cell-based, human", "details": "human; 25 µg/mL, 72 h, SRB; read-out: Cytotoxic Effect at 25 µg/mL (% Inhibition) ± SD, A549", "description": "(§1) The toxicity in human cancer cells was tested on a human breast carcinoma cell line (MCF-7), human cervix adenocarcinoma cell line (HeLa), and human lung carcinoma cell line (A549), which were compared to a human gingival fibroblast cell line (HGF) as the normal cells. These cells were cultured in DMEM liquid medium, supporting supplementary nutrients for cell culture. […] A sulforhodamine B assay was used to evaluate the cytotoxic effects of the samples, following a previous report [19]. In brief, the cancer cells were seeded into 96-well plates at 5 × 10^3 cells and incubated for 24 h. Later, we added the test samples at the final concentration of 25 μg/mL and left the experiment in the incubator for 72 h. After that, the cancer cells were fixed with cold 10% trichloro acetic acid for an hour and then we washed the acid with water. The dried plate was dyed with 0.4% SRB in 1% acetic acid for 30 min, and we washed the color with 1% acetic acid 4 times. The SRB color was dissolved in the cancer cells by adding 10 mM tris-base and measuring with a microplate reader at 492 nm."}, "in vitro [2]": {"test": "in vitro", "assay_type": "cell-based, human", "details": "human; 25 µg/mL, 72 h, SRB; read-out: Cytotoxic Effect at 25 µg/mL (% Inhibition) ± SD, HeLa", "description": "as §1"}, "in vitro [3]": {"test": "in vitro", "details": "human", "description": "as §1"}, "in vitro [4]": {"test": "in vitro", "assay_type": "cell-based, human", "details": "human; 25 µg/mL, 72 h, SRB; read-out: Cytotoxic Effect at 25 µg/mL (% Inhibition) ± SD, MCF-7", "description": "as §1"}, "[5]": {"system": "insulin-secreting rat insulinoma (INS-1E) cells", "test": "Insulin secretagogue activity (ELISA)", "assay_type": "cell-based", "details": "100 μg/mL, 24 h", "procedure": "The experiment was slightly modified from previous reports. In brief, the insulin secretion was determined by testing insulin-secreting rat insulinoma (INS-1E) cells, supported by Prof. Dr. Michael Wink, Institute of Pharmacy and Molecular Biotechnology (IPMB), University of Heidelberg, Germany. The cells were cultured in RPMI-1640 liquid medium and supplementary nutrients for cell culture under the condition of a 37 °C humidified incubator containing 5% CO2. The cells were seeded into 24-well plates at 2 × 10^5 cells. Later, the cells were treated with glucose-free culture media to stop energy consumption in the cell metabolism. Afterward, the minimum concentration of glucose in RPMI-1640 was added to the samples for 24 h. Finally, the insulin secretion was measured for insulin releasing by ELISA technique."}, "[6]": {"system": "A549 (human lung adenocarcinoma)", "test": "in vitro", "assay_type": "cell-based", "description": "as §1"}, "[7]": {"system": "Hela (human cervix adenocarcinoma)", "test": "in vitro", "assay_type": "cell-based", "description": "as §1"}, "[8]": {"system": "MCF-7 (human breast adenocarcinoma)", "test": "in vitro", "assay_type": "cell-based", "description": "as §1"}, "[9]": {"system": "HGF (human gingival fibroblast)", "description": "as §1"}, "[10]": {"details": "400 μg/mL, isolated compounds panel"}, "[11]": {"details": "control 2.5 mM glucose in RPMI-1640"}}, "note": "Values joined by “and” are separate entries in the source; they are usually repeats but may differ in a detail not shown here. Equal entries are not always repeated. Where two headings read alike, the source gives them in different places."}
{"compound": "C[C@H]1O[C@H](O[C@H]2[C@H](O)[C@@H](O)[C@@H](O[C@H]3[C@H](O)[C@@H](O)C(O)O[C@@H]3CO)O[C@@H]2CO)[C@H](O)[C@@H](O)[C@@H]1N[C@H]1C=C(CO)[C@@H](O)[C@H](O)[C@H]1O", "note": "(stereo partly drawn) [Acarbose, reference compound]", "values": [{"measurement": "Alpha Glucosidase Inhibition at 400 μg/mL", "setting": "alpha glucosidase enzyme; [10]", "result": "62.14 ± 0.37"}, {"measurement": "Alpha Glucosidase Inhibition at 2 mg/mL", "setting": "alpha glucosidase enzyme; 2 mg/mL, extracts panel", "result": "88.18 ± 0.53", "unit": "%"}, {"measurement": "mechanism of enzyme inhibition", "setting": "alpha glucosidase enzyme; Michaelis–Menten and Lineweaver–Burk kinetic plots", "result": "competitive"}]}
{"compound": "CC[C@@]1(O)C(=O)OCc2c1cc1n(c2=O)Cc2cc3ccccc3nc2-1", "note": "[Camptothecin, reference compound]", "values": [{"measurement": "inhibition at 72 h, 25 µg/mL", "setting": "in vitro [1]", "result": "87.7 ± 1.78", "unit": "%"}, {"measurement": "inhibition at 72 h, 25 µg/mL", "setting": "in vitro [2]", "result": "85.2 ± 1.23", "unit": "%"}, {"measurement": "inhibition at 72 h, 25 µg/mL", "setting": "in vitro [3]", "result": "7.35 ± 1.34", "unit": "%"}, {"measurement": "inhibition at 72 h, 25 µg/mL", "setting": "in vitro [4]", "result": "92.95 ± 0.33", "unit": "%"}]}
{"compound": "OCC(O)COCC(O)CO", "note": "(stereo not drawn) [Diglycerol]", "values": [{"measurement": "total insulin secretion (insulin concentration)", "setting": "[5]; [11]", "result": 102.2139, "unit": "µg/L"}, {"measurement": "total insulin secretion (insulin concentration)", "setting": "[5]; control 2.5 mM glucose in RPMI-1640, listed as diglycerol", "result": 102.21, "unit": "µg/L"}, {"measurement": "inhibition at 400 µg/mL", "setting": "alpha glucosidase enzyme; [10]", "result": "6.23 ± 1.84", "unit": "%"}]}
{"compound": "CC(C)[C@@H](C)/C=C/[C@@H](C)[C@H]1CC[C@H]2C3=CC=C4C[C@@H](O)CC[C@]4(C)[C@H]3CC[C@]12C", "note": "[Ergosterol]", "values": [{"measurement": "total insulin secretion (insulin concentration)", "setting": "[5]; [11]", "result": 102.4525, "unit": "µg/L"}, {"measurement": "total insulin secretion (insulin concentration)", "setting": "[5]; control 2.5 mM glucose in RPMI-1640, listed as ergosterol", "result": 102.45, "unit": "µg/L"}, {"measurement": "inhibition at 400 µg/mL", "setting": "alpha glucosidase enzyme", "result": "18.6 ± 1.42", "unit": "%"}]}
{"compound": "COc1ccc(Cl)cc1C(=O)NCCc1ccc(S(=O)(=O)NC(=O)NC2CCCCC2)cc1", "note": "[Glibenclamide, reference compound]", "values": [{"measurement": "total insulin secretion (insulin concentration)", "setting": "[5]; [11]", "result": "104.57 µg/L and 104.5722 µg/L"}]}
{"compound": "Cc1c(O)c(C(=O)CCc2ccccc2)c2oc(=O)cc(-c3ccccc3)c2c1O", "note": "[Interruptin A]", "values": [{"measurement": "total insulin secretion (insulin concentration)", "setting": "[5]; [11]", "result": "102.52 µg/L and 102.5228 µg/L"}, {"measurement": "inhibition at 400 µg/mL", "setting": "alpha glucosidase enzyme; [10]", "result": "30.3 ± 1.17", "unit": "%"}]}
{"compound": "Cc1c(O)c(C(=O)C(O)Cc2ccccc2)c2oc(=O)cc(-c3ccccc3)c2c1O", "note": "(stereo not drawn) [Interruptin C]", "values": [{"measurement": "total insulin secretion (insulin concentration)", "setting": "[5]; [11]", "result": 102.0534, "unit": "µg/L"}, {"measurement": "total insulin secretion (insulin concentration)", "setting": "[5]; control 2.5 mM glucose in RPMI-1640, listed as interruptin C", "result": 102.05, "unit": "µg/L"}, {"measurement": "inhibition at 400 µg/mL", "setting": "alpha glucosidase enzyme; [10]", "result": "58.2 ± 0.83", "unit": "%"}]}
{"compound": "C=C1CC23COC(=O)C2=CCC[C@@H]3[C@@H]2C[C@H](c3ccoc3)OC(=O)[C@H]12", "note": "(stereo partly drawn) [The new diterpene (Lepionurodiolide), 15-16-epoxy-neo-cleoda-3,7(20),13(16),14-tetraene-12,17:18,19-diolide]", "values": [{"measurement": "total insulin secretion (insulin concentration)", "setting": "[5]; control 2.5 mM glucose in RPMI-1640, listed as The new diterpene", "result": 52.0566, "unit": "µg/L"}, {"measurement": "total insulin secretion (insulin concentration)", "setting": "[5]; control 2.5 mM glucose in RPMI-1640, listed as the new diterpene compound", "result": 52.06, "unit": "µg/L"}, {"measurement": "inhibition at 400 µg/mL", "setting": "alpha glucosidase enzyme; [10]", "result": "58.48 ± 0.48", "unit": "%"}]}
{"compound": "Hexane", "values": [{"measurement": "Cytotoxic Effect at 25 µg/mL (% Inhibition) ± SD, A549", "setting": "[6]", "result": "15.40 ± 2.75", "unit": "%"}, {"measurement": "Cytotoxic Effect at 25 µg/mL (% Inhibition) ± SD, HeLa", "setting": "[7]", "result": "83.89 ± 4.31", "unit": "%"}, {"measurement": "Cytotoxic Effect at 25 µg/mL (% Inhibition) ± SD, MCF-7", "setting": "[8]", "result": "53.54 ± 1.81", "unit": "%"}, {"measurement": "Cytotoxic Effect at 25 µg/mL (% Inhibition) ± SD, HGF", "setting": "[9]", "result": "48.23 ± 2.96", "unit": "%"}, {"measurement": "cytotoxicity category on HGF cells", "setting": "[9]", "result": "moderate (key: non-cytotoxic: cell viability above 80%; weak: 80–60%; moderate: 60–40%; strong: below 40%)"}]}
